Results from ChEMBL document CHEMBL1124526, “Synthesis and biological evaluation of certain 3-beta-D-ribofuranosyl-1,2,4-triazolo[4,3-b)pyridazines related to formycin prepared via ring closure of pyridazine precursors” (J Med Chem, 1989).
Active and inactive are the calls of the source.

Experiments:
[1] = tested on: Human adenovirus 2; experiment: In vitro antiviral activity against adeno virus type 2; Compound was inactive at 100 uM and 1000 uM respectively.; format: functional, organism-based
[2] = tested on: Human rhinovirus 1A; experiment: In vitro antiviral activity against rhino virus type 1-A (2060); Compound was inactive at 100 uM and 1000 uM respectively.; format: functional, organism-based
[3] = tested on: Human respirovirus 3; experiment: In vitro antiviral activity against parainfluenza virus type 3 (C243); Compound was inactive at 100 uM and 1000 uM respectively.; format: functional, organism-based
[4] = tested on: Semliki Forest virus; experiment: In vitro antiviral activity against semliki forest virus (original); Compound was inactive at 100 uM and 1000 uM respectively.; format: functional, organism-based
[5] = species: Homo sapiens; experiment: In vitro ability to inhibit the growth of WI-L2 human B-lymphoblastic leukemia; Compound was inactive at 100 uM and 1000 uM respectively.; format: functional
[6] = tested on: L1210; experiment: In vitro ability to inhibit the growth of L1210 murine lymphocytic leukemia; Compound was inactive at 100 uM and 1000 uM respectively.; format: functional, cell-based; conditions: Mus musculus
[7] = tested on: Visna-maedi virus; experiment: In vitro antiviral activity against vinsa virus (1513); Compound was inactive at 100 uM and 1000 uM respectively.; format: functional, organism-based
[8] = tested on: Human alphaherpesvirus 2; experiment: In vitro antiviral activity against herpes simplex virus type 2 (MS); Compound was inactive at 100 uM and 1000 uM respectively.; format: functional, organism-based
[9] = tested on: Influenza A virus; experiment: In vitro antiviral activity against influenza A virus (chile); Compound was inactive at 100 uM and 1000 uM respectively.; format: functional, organism-based
[10] = tested on: CCRF-CEM; experiment: In vitro ability to inhibit the growth of CCRF-CEM human T-lymphoblastic leukemia; Compound was inactive at 100 uM and 1000 uM respectively.; format: functional, cell-based

Measured: Activity

COc1ccc2nnc([C@@H]3O[C@H](CO)[C@@H](O)[C@H]3O)n2n1
inactive: [1] inactive at 100 uM and 1000 uM respectively | [2] inactive at 100 uM and 1000 uM respectively | [3] inactive at 100 uM and 1000 uM respectively | [4] inactive at 100 uM and 1000 uM respectively | [5] inactive at 100 uM and 1000 uM respectively | [6] inactive at 100 uM and 1000 uM respectively | [7] inactive at 100 uM and 1000 uM respectively | [8] inactive at 100 uM and 1000 uM respectively | [9] inactive at 100 uM and 1000 uM respectively | [10] inactive at 100 uM and 1000 uM respectively

O=c1ccc2nnc([C@@H]3O[C@H](CO)[C@@H](O)[C@H]3O)n2[nH]1
inactive: [1] inactive at 100 uM and 1000 uM respectively | [2] inactive at 100 uM and 1000 uM respectively | [3] inactive at 100 uM and 1000 uM respectively | [4] inactive at 100 uM and 1000 uM respectively | [5] inactive at 100 uM and 1000 uM respectively | [6] inactive at 100 uM and 1000 uM respectively | [7] inactive at 100 uM and 1000 uM respectively | [8] inactive at 100 uM and 1000 uM respectively | [9] inactive at 100 uM and 1000 uM respectively | [10] inactive at 100 uM and 1000 uM respectively

Nc1ccc2nnc([C@@H]3O[C@H](CO)[C@@H](O)[C@H]3O)n2n1
inactive: [1] inactive at 100 uM and 1000 uM respectively | [2] inactive at 100 uM and 1000 uM respectively | [3] inactive at 100 uM and 1000 uM respectively | [4] inactive at 100 uM and 1000 uM respectively | [5] inactive at 100 uM and 1000 uM respectively | [6] inactive at 100 uM and 1000 uM respectively | [7] inactive at 100 uM and 1000 uM respectively | [8] inactive at 100 uM and 1000 uM respectively | [9] inactive at 100 uM and 1000 uM respectively | [10] inactive at 100 uM and 1000 uM respectively

Nc1c(Cl)cnn2c([C@@H]3O[C@H](CO)[C@@H](O)[C@H]3O)nnc12
inactive: [1] inactive at 100 uM and 1000 uM respectively | [2] inactive at 100 uM and 1000 uM respectively | [3] inactive at 100 uM and 1000 uM respectively | [4] inactive at 100 uM and 1000 uM respectively | [5] inactive at 100 uM and 1000 uM respectively | [6] inactive at 100 uM and 1000 uM respectively | [7] inactive at 100 uM and 1000 uM respectively | [8] inactive at 100 uM and 1000 uM respectively | [9] inactive at 100 uM and 1000 uM respectively | [10] inactive at 100 uM and 1000 uM respectively

Nc1ccnn2c([C@@H]3O[C@H](CO)[C@@H](O)[C@H]3O)nnc12
inactive: [1] inactive at 100 uM and 1000 uM respectively | [2] inactive at 100 uM and 1000 uM respectively | [3] inactive at 100 uM and 1000 uM respectively | [4] inactive at 100 uM and 1000 uM respectively | [5] inactive at 100 uM and 1000 uM respectively | [6] inactive at 100 uM and 1000 uM respectively | [7] inactive at 100 uM and 1000 uM respectively | [8] inactive at 100 uM and 1000 uM respectively | [9] inactive at 100 uM and 1000 uM respectively | [10] inactive at 100 uM and 1000 uM respectively

Nc1cnn2c([C@@H]3O[C@H](CO)[C@@H](O)[C@H]3O)nnc2c1
inactive: [1] inactive at 100 uM and 1000 uM respectively | [2] inactive at 100 uM and 1000 uM respectively | [3] inactive at 100 uM and 1000 uM respectively | [4] inactive at 100 uM and 1000 uM respectively | [5] inactive at 100 uM and 1000 uM respectively | [6] inactive at 100 uM and 1000 uM respectively | [7] inactive at 100 uM and 1000 uM respectively | [8] inactive at 100 uM and 1000 uM respectively | [9] inactive at 100 uM and 1000 uM respectively | [10] inactive at 100 uM and 1000 uM respectively

Nc1cnn2c([C@@H]3O[C@H](CO)[C@@H](O)[C@H]3O)nnc2c1Cl
inactive: [1] inactive at 100 uM and 1000 uM respectively | [2] inactive at 100 uM and 1000 uM respectively | [3] inactive at 100 uM and 1000 uM respectively | [4] inactive at 100 uM and 1000 uM respectively | [5] inactive at 100 uM and 1000 uM respectively | [6] inactive at 100 uM and 1000 uM respectively | [7] inactive at 100 uM and 1000 uM respectively | [8] inactive at 100 uM and 1000 uM respectively | [9] inactive at 100 uM and 1000 uM respectively | [10] inactive at 100 uM and 1000 uM respectively
